Experimental findings from patent US8933228B2, “Respiratory formulations and compounds for use therein” (Respivert, Ltd., priority 2010, dated 2015) are described below.

Data set [1] deals with TNFα release in THP-1 cells. Nature of the data set: LPS-induced TNFα release in THP-1 cells. It is filed as cell-based. The settings on record: Homo sapiens; THP-1 cells, LPS 3 μg/mL, 4 hr; read-out: THP1 (LPS) TNFα IC50. As for the experimental part:
The inhibition of TNFα production was calculated at each concentration by comparison with vehicle control.

For data set [2], the system named is TNFα release in d-U937 cells. Nature of the data set: LPS-induced TNFα release in d-U937 cells. It is filed as cell-based. The note with it: Homo sapiens, dU937, LPS 0.1 μg/mL, 4 hr, relative to 10 μg/mL BIRB796, read-out: d-U937 (LPS) TNFα REC50. As to the method: (§1) U937 cells, a human monocytic cell line, were differentiated to macrophage-type cells by incubation with phorbol myristate acetate (PMA; 100 ng/mL) for 48 to 72 hr, whereupon the cells become adherent. […] Coli: O111:B4, Sigma) for 4 hr. The supernatant was collected for determination of TNFα and IL-8 concentrations by sandwich ELISA (Duo-set, R&D systems). […] The relative 50% effective concentration (REC50) was determined from the resultant concentration-response curve. The inhibition of IL-8 production was calculated at each concentration of test compound by comparison with vehicle control.

Data set [3] relates to IL-8 release in d-U937 cells. Kind of data set: LPS-induced IL-8 release in d-U937 cells. It is filed as cell-based. The note with it: Homo sapiens, dU937; d-U937 cells, LPS 0.1 μg/mL, 4 hr; read-out: d-U937 (LPS) IL-8 IC50. As to the method:
as §1

Data set [4] deals with ICAM-1 expression in BEAS2B cells. Kind of data set: Poly I:C-induced ICAM-1 induction in BEAS2B cells. It is filed as cell-based. The note with it: Homo sapiens, BEAS-2B; BEAS2B cells, poly I:C 1 μg/mL, 18 hr; read-out: BEAS2B (polyIC) ICAM1 IC50. As to the method:
Poly I:C (1 μg/mL) (Invivogene Ltd., San Diego, Calif.) was transfected into BEAS2B cells (human bronchial epithelial cells, ATCC) with Oligofectamine (Invitrogen, Carlsbad, Calif.). Cells were pre-incubated with final concentrations of test compounds for 2 hr and the level of ICAM1 expression on the cell surface was determined by cell-based ELISA. […] The cells were washed with PBS-Tween and incubated with the secondary antibody (HRP-conjugated anti-rabbit IgG, Dako Ltd., Glostrup, Denmark).

For the next data set, the system named is HRV16. Kind of data set: Rhinovirus-titre assay. The note with it: Human rhinovirus sp., HRV16, read-out: HRV titre (inhibitory %): % inhibition observed vs. HRV16 infection control; for inhibition at 0.2 µg/mL: cell marked b: performed at 0.2 μg/mL; for inhibition at 0.04 µg/mL: cell not marked b, test compounds 0.04 μg/mL per method (footnote b, 0.2 μg/mL). It is filed as cell-based, human rhinovirus. As to the method: MRC5 cells (human lung fibroblast, ATCC) were infected with 1 MOI (multiplicity of infection of 1.0) of HRV16 and incubated for 1 hr at 33° C. with gentle shaking to stimulate adsorption. The cells were then washed with PBS, fresh media was added and the cells were incubated for a further 96 hr. The supernatant was collected and 10-fold serial dilutions of virus containing supernatant were prepared. All titrations were performed by infecting confluent Hela cell monolayers with serially diluted supernatant (10^−1-10^−5) and assessing the cytopathic effect by visual inspection 4 days after infection. The amount of virus required to infect 50% of Hela cells was calculated in each treatment as TCID50. Test compounds (0.04 μg/mL) were added 2 hr before HRV infection and 1 hr after infection when non-infected HRV was washed out. The anti-HRV activity of each test compound was determined as the difference of the log TCID50 of HRV16 in the presence of the compound with the log TCID50 of HRV16 in the absence of compound. […]

In data set [5] the test system is Differentiated U937 cells. Nature of the data set: MTT assay: cell viability. It is filed as cell-based, human. The settings on record: for d-U937 MTT Assay 4 h: 5% FCS; for d-U937 MTT Assay 24 h: 10% FCS. As for the experimental part:
Differentiated U937 cells were pre-incubated with each test compound under two protocols: the first for 4 hr in 5% FCS and the second in 10% FCS for 24 h. The supernatant was replaced with 200 μL of new media and 10 μL of MTT stock solution (5 mg/mL) was added to each well. After incubation for 1 hr the media were removed, 200 μL of DMSO was added to each well and the plates were shaken lightly for 1 hr prior to reading the absorbance at 550 nm. The percentage loss of cell viability was calculated for each well relative to vehicle (0.5% DMSO) treatment. Consequently an apparent increase in cell viability for drug treatment relative to vehicle is tabulated as a negative percentage.

pEC50, pIC50: −log10 of the molar value.

As for `Cc1ccc(-n2nc(C(C)(C)C)cc2NC(=O)Nc2ccc(OCCN3CCOCC3)c3ccccc23)cc1` [BIRB 796, 1-(3-tert-butyl-1-p-tolyl-1H-pyrazol-5-yl)-3-(4-(2-morpholinoethoxy)naphthalen-1-yl)urea, reference compound], the pIC50 is 8.39 in data set [1], below 5.72 in data set [3] and 5.45 in data set [4]. Also, the pEC50 in data set [2] is 8.32. Further, in the data set with HRV16, the inhibition at 0.2 µg/mL came out at 28%. In addition, in data set [5] (performed at 10 μg/mL), the “d-U937 MTT Assay 4 h” value is “− ^d (− and + indicate the result is below and above the no significant effect threshold, respectively (<30% inhibition at a concentration of 1 μg/ml))”. In data set [5] (performed at 10 μg/mL), the “d-U937 MTT Assay 24 h” value was “− ^d (− and + indicate the result is below and above the no significant effect threshold, respectively (<30% inhibition at a concentration of 1 μg/ml))”.
For the molecule `Cc1ccc(-n2nc(C(C)(C)C)cc2NC(=O)Nc2ccc(Oc3ccnc4[nH]c(=O)cnc34)c3ccccc23)s1` [Example 21], the pIC50 in data set [1] was 7.96. In addition, the pEC50 in data set [2] was 8.15. In addition, in data set [3], the pIC50 is 8.48. In the data set on HRV16, the inhibition at 0.04 µg/mL is 80%. Moreover, in data set [5] (1 μg/ml), the “d-U937 MTT Assay 4 h” value was “− (− and + indicate the result is below and above the no significant effect threshold, respectively (<30% inhibition at a concentration of 1 μg/ml))”; the “d-U937 MTT Assay 24 h” value was “− (− and + indicate the result is below and above the no significant effect threshold, respectively (<30% inhibition at a concentration of 1 μg/ml))”.
Regarding `Cc1ccc(-n2nc(C(C)C)cc2NC(=O)Nc2ccc(Oc3ccnc4[nH]c(=O)cnc34)c3ccccc23)cc1` [Example 30, 1-(3-isopropyl-1-(p-tolyl)-1H-pyrazol-5-yl)-3-(4-((3-oxo-3,4-dihydropyrido[2,3-b]pyrazin-8-yl)oxy)naphthalen-1-yl)urea], the pIC50 is 7.47 in data set [1], 8.37 in data set [3] and 7.57 in data set [4]. Further, the pEC50 in data set [2] is 8.96. In addition, the inhibition at 0.04 µg/mL in the data set with HRV16 is 36%. Besides, the “d-U937 MTT Assay 4 h” value in data set [5] (1 μg/ml) is “− (− and + indicate the result is below and above the no significant effect threshold, respectively (<30% inhibition at a concentration of 1 μg/ml))”. Besides, the “d-U937 MTT Assay 24 h” value in data set [5] (1 μg/ml) was “− (− and + indicate the result is below and above the no significant effect threshold, respectively (<30% inhibition at a concentration of 1 μg/ml))”.
For `CC(C)(C)c1cc(NC(=O)Nc2ccc(Oc3ccnc4[nH]c(=O)cnc34)c3ccccc23)n(-c2ccc(Cl)c(Cl)c2)n1` [Example 32, 1-(3-(tert-butyl)-1-(3,4-dichlorophenyl)-1H-pyrazol-5-yl)-3-(4-((3-oxo-3,4-dihydropyrido[2,3-b]pyrazin-8-yl)oxy)naphthalen-1-yl)urea], the pIC50 in data set [1] is 8.06; in data set [3], 8.15; in data set [4] it was 8.00. Also, in data set [2], the pEC50 is 8.26. Besides, the inhibition at 0.04 µg/mL with HRV16 turned out to be 80%. The “d-U937 MTT Assay 4 h” value in data set [5] (1 μg/ml) was “− (− and + indicate the result is below and above the no significant effect threshold, respectively (<30% inhibition at a concentration of 1 μg/ml))”. In addition, the “d-U937 MTT Assay 24 h” value in data set [5] (1 μg/ml) was “− (− and + indicate the result is below and above the no significant effect threshold, respectively (<30% inhibition at a concentration of 1 μg/ml))”.
As to `COCC(=O)Nc1cc(Oc2ccc(NC(=O)Nc3cc(C(C)(C)C)nn3-c3ccc(C)cc3)c3ccccc23)ccn1` [Ref 2, N-(4-(4-(3-(3-tert-butyl-1-p-tolyl-1H-pyrazol-5-yl)ureido)naphthalen-1-yloxy)pyridin-2-yl)-2-methoxy acetamide, reference compound], the pEC50 in data set [2] was 9.89. In addition, the inhibition at 0.2 µg/mL in the data set on HRV16 came to 100%. Besides, in data set [5] (1 μg/ml), the “d-U937 MTT Assay 4 h” value is “− (− and + indicate the result is below and above the no significant effect threshold, respectively (<30% inhibition at a concentration of 1 μg/ml))”; the “d-U937 MTT Assay 24 h” value is “− (− and + indicate the result is below and above the no significant effect threshold, respectively (<30% inhibition at a concentration of 1 μg/ml))”.
